Tested on: human hepatoma Huh-7 cell line harboring a HCV replicon
Assay: HCV replicon assay (inhibition of viral replication, luciferase)
Format: cell-based
Settings: Hepatitis C virus, 72 h; 2 μM; Huh-7 HCV replicon cells, 3 days incubation; inhibition of viral replication; read-out: % inhibition at 2 μM
Protocol: The anti-HCV activity of the compounds of this invention was tested in a human hepatoma Huh-7 cell line harboring a HCV replicon. The assay comprised the following steps:
Step 1: Compound Preparation and Serial Dilution.
Serial dilution was performed in 100% DMSO in a 384-well plate. A solution containing a compound at 225-fold concentration of the starting final serial dilution concentration was prepared in 100% DMSO and 15 uL added to the pre-specified wells in column 3 or 13 of a polypropylene 384-well plate. The rest of the 384-well plate was filled with 10 uL 100% DMSO except for columns 23 and 24, where 10 uL of 500 uM a HCV protease inhibitor (ITMN-191) in 100% DMSO was added. The HCV protease inhibitor was used a control of 100% inhibition of HCV replication. The plate was then placed on a Biomek FX Workstation to start the serial dilution. The serial dilution was performed for ten cycles of 3-fold dilution from column 3 to 12 or from column 13 to 22.
Step 2: Cell Culture Plate Preparation and Compound Addition
To each well of a black polypropylene 384-well plate, 90 μL of cell media containing 1600 suspended Huh-7 HCV replicon cells was added with a Biotek uFlow Workstation. A volume of 0.4 μL of the compound solution was transferred from the serial dilution plate to the cell culture plate on a Biomek FX Workstation. The DMSO concentration in the final assay condition was 0.44%. The plates were incubated for 3 days at 37° C. with 5% CO2 and 85% humidity.
Step 3: Detection of Cytotoxicity and Inhibition of Viral Replication
a) Assessment of cytotoxicity: The media in the 384-well cell culture plate was aspirated with a Biotek EL405 plate-washer. A volume of 50 μL of a solution containing 400 nM Calcein AM in 100% PBS was added to each well of the plate with a Biotek uFlow Workstation. The plate was incubated for 30 minutes at room temperature before the fluorescence signal ([…]) was measured with a Perkin Elmer Envision Plate Reader.
b) Assessment of inhibition of viral replication: The calcein-PBS solution in the 384-well cell culture plate was aspirated with a Biotek EL405 plate-washer. A volume of 20 μL of Dual-Glo luciferase buffer (Promega, Dual-Glo Luciferase Assay Reagent, cat. #E298B) was added to each well of the plate with a Biotek uFlow Workstation. The plate was incubated for 10 minutes at room temperature. A volume of 20 μL of a solution containing 1:100 mixture of Dual-Glo Stop & Glo substrate(Promega, Dual-Glo Luciferase Assay Reagent, cat. #E313B) and Dual-Glo Stop & Glo buffer (Promega, Dual-Glo Luciferase Assay Reagent, cat. #E314B) was then added to each well of the plate with a Biotek uFlow Workstation. The plate was incubated at room temperature for 10 minutes before the luminescence signal was measured with a Perkin Elmer Envision Plate Reader.
The percent cytotoxicity was determined by calcein AM conversion to fluorescent product. The average fluorescent signal from the DMSO control wells were defined as 100% nontoxic. The individual fluorescent signal from testing compound treated well was divided by the average signal from DMSO control wells and then multiplied by 100% to get the percent viability. The percent anti-HCV replication activity was determined by the luminescence signal from the testing well compared to DMSO controls wells. The background signal was determined by the average luminescence signal from the HCV protease inhibitor treated wells and was subtracted from the signal from the testing wells as well as the DMSO control wells. Following 3-fold serial dilutions, the EC50 and CC50 values were calculated by fitting % inhibition at each concentration to the following equation: % inhibition=100%[(EC50/[l])^b+1]
Where b is Hill's coefficient. See, for reference, Hill, A. V., The Possible Effects of the Aggregation of the Molecules of Hæmoglobin on its Dissociation Curves, J. Physiol. 40: iv-vii. (1910). […]

Row | SMILES | inhibition at 2 µM [%]
1 | CC(C)(C)C#Cc1cc(N(C(=O)[C@H]2CC[C@H](C)CC2)[C@H]2CCN(C(=O)OC3(C)CCN(C(=O)OC(C)(C)C)C3)C2)c(C(=O)O)s1 (stereo in doubt) [Compound 67, 3-(S)-{3-[[2-Carboxy-5-(3,3-dimethyl-but-1-ynyl)-thiophene-3-yl](trans-4-methyl-cyclohexanecarbonyl)-amino]-pyrrolidine-1-carbonyloxy}-3-methyl-pyrrolidine-1-carboxylic acid tert-butyl ester] | 99
2 | CC(C)(C)C#Cc1cc(N(C(=O)[C@H]2CC[C@H](C)CC2)C2CCN(C(=O)OC3CCNCC3)CC2)c(C(=O)O)s1 [Compound 31, 4-[[2-carboxy-5-(3,3-dimethyl-but-1-ynyl)-thiophen-3-yl]-(4-trans-methyl-cyclohexanecarbonyl)-amino]-piperidine-1-carboxylic acid piperidin-4-yl ester] | 93.1
3 | CC(C)(C)C#Cc1cc(N(C(=O)[C@H]2CC[C@H](C)CC2)C2CCC(NC(=O)OC3CCOCC3)CC2)c(C(=O)O)s1 (stereo partly drawn) [Compound 32, 5-(3,3-dimethyl-but-1-ynyl)-3-{(4-trans-methyl-cyclohexanecarbonyl)-[4-(tetrahydro-pyran-4-yloxycarbonylamino)-cyclohexyl]-amino}-thiophene-2-carboxylic acid] | 100
4 | CC(C)(C)C#Cc1cc(N(C(=O)[C@H]2CC[C@H](C)CC2)[C@H]2CCN(C(=O)O[C@@H]3CNC(=O)C3)C2)c(C(=O)O)s1 [Compound 33, 3-(S)-[[2-carboxy-5-(3,3-dimethyl-but-1-ynyl)-thiophen-3-yl]-(4-trans-methyl-cyclohexanecarbonyl)-amino]-pyrrolidine-1-carboxylic acid 5-oxo-pyrrolidin-3-(S)-yl ester] | 96.2
5 | CC(C)(C)C#Cc1cc(N(C(=O)[C@H]2CC[C@H](C)CC2)[C@H]2CCN(C(=O)O[C@H]3CNC(=O)C3)C2)c(C(=O)O)s1 [Compound 34, 3-(S)-[[2-carboxy-5-(3,3-dimethyl-but-1-ynyl)-thiophen-3-yl]-(4-trans-methyl-cyclohexanecarbonyl)-amino]-pyrrolidine-1-carboxylic acid 5-oxo-pyrrolidin-3-(R)-yl ester] | 97.8
6 | CC(C)(C)C#Cc1cc(N(C(=O)[C@H]2CC[C@H](C)CC2)[C@H]2CCN(C(=O)O[C@H]3CO[C@H]4OCC[C@H]43)C2)c(C(=O)O)s1 [Compound 35, 3-(S)-[[2-Carboxy-5-(3,3-dimethyl-but-1-ynyl)-thiophen-3-yl]-(4-methyl-cyclohexanecarbonyl)-amino]-pyrrolidine-1-carboxylic acid hexahydro-furo[2,3-b]furan-3-(R)-yl ester] | 99.8
7 | CC(C)(C)C#Cc1cc(N(C(=O)[C@H]2CC[C@H](C)CC2)C2CCN(C(=O)O[C@H]3CO[C@H]4OCC[C@H]43)CC2)c(C(=O)O)s1 [Compound 36, 4-[[2-carboxy-5-(3,3-dimethyl-but-1-ynyl)-thiophen-3-yl]-(4-methyl-cyclohexanecarbonyl)-amino]-piperidine-1-carboxylic acid hexahydro-furo[2,3-b]furan-3-(R)-yl ester] | 100
8 | CC(C)(C)C#Cc1cc(N(C(=O)[C@H]2CC[C@H](C)CC2)[C@H]2CCN(C(=O)O[C@@H]3CCCN(C(=O)OC(C)(C)C)C3)C2)c(C(=O)O)s1 [Compound 37, 3-(R)-{3-(S)-[[2-carboxy-5-(3,3-dimethyl-but-1-ynyl)-thiophen-3-yl]-(4-trans-methyl-cyclohexanecarbonyl)-amino]-pyrrolidine-1-carbonyloxy}-piperidine-1-carboxylic acid tert-butyl ester] | 99.6
9 | CC(C)(C)C#Cc1cc(N(C(=O)[C@H]2CC[C@H](C)CC2)[C@H]2CCN(C(=O)O[C@@H]3CCCNC3)C2)c(C(=O)O)s1 [Compound 38, 3-(S)-[[2-carboxy-5-(3,3-dimethyl-but-1-ynyl)-thiophen-3-yl]-(4-trans-methyl-cyclohexanecarbonyl)-amino]-pyrrolidine-1-carboxylic acid piperidin-3-(R)-yl ester] | 99.6
10 | CC(C)(C)C#Cc1cc(N(C(=O)[C@H]2CC[C@H](C)CC2)[C@H]2CCN(C(=O)OC3CCN(C(=O)OC(C)(C)C)CC3)C2)c(C(=O)O)s1 [Compound 39, 4-{3-(S)-[[2-carboxy-5-(3,3-dimethyl-but-1-ynyl)-thiophen-3-yl]-(4-trans-methyl-cyclohexanecarbonyl)-amino]-pyrrolidine-1-carbonyloxy}-piperidine-1-carboxylic acid tert-butyl ester] | 98.8
11 | CC(C)(C)C#Cc1cc(N(C(=O)[C@H]2CC[C@H](C)CC2)[C@H]2CCN(C(=O)OC3CCNCC3)C2)c(C(=O)O)s1 [Compound 40, 3-(S)-[[2-carboxy-5-(3,3-dimethyl-but-1-ynyl)-thiophen-3-yl]-(4-trans-methyl-cyclohexanecarbonyl)-amino]-pyrrolidine-1-carboxylic acid piperidin-4-yl ester] | 98.6
12 | CC(C)(C)C#Cc1cc(N(C(=O)[C@H]2CC[C@H](C)CC2)[C@H]2CCN(C(=O)OC3CCOCC3)C2)c(C(=O)O)s1 [Compound 41, 3-(S)-[[2-carboxy-5-(3,3-dimethyl-but-1-ynyl)-thiophen-3-yl]-(4-trans-methyl-cyclohexanecarbonyl)-amino]-pyrrolidine-1-carboxylic acid tetrahydro-pyran-4-yl ester] | 99.9
13 | CC(C)(C)C#Cc1cc(N(C(=O)[C@H]2CC[C@H](C)CC2)[C@H]2CCN(C(=O)O[C@@H]3CCOC3)C2)c(C(=O)O)s1 [Compound 42, 3-(S)-[[2-carboxy-5-(3,3-dimethyl-but-1-ynyl)-thiophen-3-yl]-(4-trans-methyl-cyclohexanecarbonyl)-amino]-pyrrolidine-1-carboxylic acid tetrahydro-furan-3-(R)-yl ester] | 99.9
14 | CC(C)(C)C#Cc1cc(N(C(=O)[C@H]2CC[C@H](C)CC2)[C@H]2CCN(C(=O)O[C@H]3CCNC3=O)C2)c(C(=O)O)s1 [Compound 43, 3-(S)-[[2-carboxy-5-(3,3-dimethyl-but-1-ynyl)-thiophen-3-yl]-(4-trans-methyl-cyclohexanecarbonyl)-amino]-pyrrolidine-1-carboxylic acid 2-oxo-pyrrolidin-3-(R)-yl ester] | 96.2
15 | CC(C)(C)C#Cc1cc(N(C(=O)[C@H]2CC[C@H](C)CC2)C2CCC(NC(=O)OC3CCN(C(=O)OC(C)(C)C)CC3)CC2)c(C(=O)O)s1 (stereo partly drawn) [Compound 44, 4-{4-[[2-carboxy-5-(3,3-dimethyl-but-1-ynyl)-thiophen-3-yl]-(4-trans-methyl-cyclohexanecarbonyl)-amino]-cyclohexylcarbamoyloxy}-piperidine-1-carboxylic acid tert-butyl ester] | 100
16 | CC(C)(C)C#Cc1cc(N(C(=O)[C@H]2CC[C@H](C)CC2)C2CCC(NC(=O)OC3CCNCC3)CC2)c(C(=O)O)s1 (stereo partly drawn) [Compound 45, 5-(3,3-dimethyl-but-1-ynyl)-3-{(4-trans-methyl-cyclohexanecarbonyl)-[4-(piperidin-4-yloxycarbonylamino)-cyclohexyl]-amino}-thiophene-2-carboxylic acid] | 100
17 | CC(C)(C)C#Cc1cc(N(C(=O)[C@H]2CC[C@H](C)CC2)C2CCC(NC(=O)O[C@@H]3CCCN(C(=O)OC(C)(C)C)C3)CC2)c(C(=O)O)s1 (stereo partly drawn) [Compound 46, 3-(R)-{4-[[2-carboxy-5-(3,3-dimethyl-but-1-ynyl)-thiophen-3-yl]-(4-trans-methyl-cyclohexanecarbonyl)-amino]-cyclohexylcarbamoyloxy}-piperidine-1-carboxylic acid tert-butyl ester] | 97

— US8884030B2, “Inhibitors of Flaviviridae viruses” (priority 2010, dated 2014)
